Results on 25 molecules are retold here after ChEMBL document CHEMBL4339245, “Grayanane Diterpenoids from the Leaves of Rhododendron auriculatum and Their Analgesic Activities” (2019).

In experiment [1] the test system is Mus musculus. The experiment in a line: Analgesic activity in Kunming mouse model of acetic-acid-induced writhing assessed as inhibition of writhing numbers at 5 mg/kg measured for 30 mins relative to control. Format: functional. On the technique in general: In writhing tests, fewer writhes than in controls are read as antinociception.
In experiment [2] the test system is Mus musculus. The experiment in a line: Analgesic activity in Kunming mouse model of acetic-acid-induced writhing assessed as inhibition of writhing numbers at 0.2 mg/kg measured for 30 mins relative to control. The format is functional, organism-based.
The test system of experiment [3] is Mus musculus. The experiment in a line: Analgesic activity in Kunming mouse model of acetic-acid-induced writhing assessed as inhibition of writhing numbers at 0.04 to 0.2 mg/kg measured for 30 mins relative to control. Format: functional, organism-based.
Experiment [4] deals with Mus musculus. In words: Analgesic activity in Kunming mouse model of acetic-acid-induced writhing assessed as inhibition of writhing numbers at 0.04 mg/kg measured for 30 mins relative to control. The format is functional, organism-based.
In experiment [5] the test system is Mus musculus. The experiment in a line: Analgesic activity in Kunming mouse model of acetic-acid-induced writhing assessed as inhibition of writhing numbers at 1 mg/kg measured for 30 mins relative to control. The format is functional, organism-based.

Active and inactive are the calls of the source. No cut-off for these calls is given here.

In the case of `C=C1[C@H]2C[C@H](O)C(C)(C)[C@@]2(O)[C@H](O)C[C@]23C=C(C)[C@H](CC[C@@H]12)C3`, in the experiment on Mus musculus [1], the result was Active.

For the molecule `C=C1[C@H]2C[C@@H](O)C(C)(C)[C@]2(O)CC[C@@]23C[C@@H](CC[C@@H]12)[C@](C)(O)C3`, in the experiment with Mus musculus [1], the Activity turned out to be 64.1%.

Take `C=C1[C@H]2C[C@H](O)[C@@](C)(CO)[C@]2(O)CC[C@@]23C[C@@H](CC[C@@H]12)[C@](C)(O)C3`: the Activity with Mus musculus [1] is on record as 58.8%.

Turning to `C=C1[C@@H]2CC[C@@H]3C[C@@]2(C[C@@H](O)[C@@]2(O)[C@H]1C[C@@H](O)C2(C)C)C[C@@]3(C)O`, in the experiment on Mus musculus [1], the outcome was Active.

For the molecule `C=C1[C@@H]2CC[C@@H]3C[C@@]2(CC[C@@]2(O)[C@H]1C[C@H](O)C2(C)C)C[C@@]3(C)O`, the outcome in the experiment with Mus musculus [1] was Active.

With `CC1=C2CC[C@]3(O)C[C@@]2(C[C@@H](O)[C@@]2(O)[C@H]1C[C@H](O)C2(C)C)C[C@@]3(C)O`, the Activity in the experiment with Mus musculus [1] turned out to be 52.3%.

With `C=C1[C@@H]2CC[C@@H]3C[C@@]2(CC[C@@]2(O)[C@H]1C[C@H](O)C2(C)C)C[C@]3(O)CO`, in the experiment with Mus musculus [1], the outcome was Active.

Regarding `CO[C@H]1O[C@]23[C@H](O)C[C@@]45C[C@@](O)(CC[C@H]4[C@H]1[C@@H]2C[C@H](O)C3(C)C)[C@](C)(O)C5`, the result in the experiment with Mus musculus [1] was Active.

With `C=C1[C@@H]2CC[C@]3(O)C[C@@]2(C[C@@H](O)[C@@]2(O)[C@H]1C[C@H](O)C2(C)C)C[C@@]3(C)O`, the result in the experiment with Mus musculus [1] was Active.

As for `C=C1[C@@H]2CC[C@@H]3[C@@H](OC(C)=O)[C@@]2(C[C@@H](O)[C@@]2(O)[C@H]1C[C@H](O)C2(C)C)C[C@@]3(C)O`, the outcome in the experiment on Mus musculus [2] and in the experiment on Mus musculus [3] was Active.

For the molecule `CC1=C2CC[C@]3(O)C[C@@]2(C[C@@H](O)[C@@]2(O)[C@H]1[C@@H](O)[C@H](O)C2(C)C)C[C@@]3(C)O`, the result in the experiment with Mus musculus [1] was Active.

Consider `C=C1[C@H]2C[C@H](O)C(C)(C)[C@@]2(O)[C@H](O)C[C@@]23C[C@@](O)(CC[C@@H]12)[C@](C)(O)C3`, for which the outcome in the experiment with Mus musculus [1] was Active.

On to `C=C1[C@@H]2CC[C@]3(O)C[C@@]2(C[C@@H](O)[C@@]2(O)[C@@H]1[C@H](O)[C@H](O)C2(C)C)C[C@@]3(C)O`, for which, in the experiment with Mus musculus [1], the outcome was Active.

As for `C=C1[C@@H]2CC[C@@H]3C[C@@]2(C[C@@H](O)[C@@]2(O)[C@H]1C[C@H](O)C2(C)C)C[C@@]3(C)O`, the result with Mus musculus [1] was Active.

For `CN1CC[C@]23c4c5ccc(O)c4O[C@H]2[C@@H](O)C=C[C@H]3[C@H]1C5`, the result in the experiment with Mus musculus [4] was Active.

Turning to `C=C1[C@@H]2CC[C@@H]3[C@@H](O)[C@@]2(C[C@@H](O)[C@@]2(O)[C@H]1C[C@H](O)C2(C)C)C[C@@]3(C)O`, the result in the experiment on Mus musculus [1] was Active.

Turning to `C=C1[C@H]2C[C@H](O)C(C)(C)[C@]2(O)CC[C@@]23C[C@@H](CC[C@@H]12)[C@](C)(O)C3`, in the experiment with Mus musculus [1], the result was Active.

Consider `C=C1[C@H]2C[C@H](O)C(C)(C)[C@@]2(O)[C@H](O)C[C@@]23C[C@@H](CC[C@@H]12)[C@](C)(O)C3`, for which the outcome in the experiment on Mus musculus [1] was Active.

With `C=C1[C@@H]2CC[C@H]3C(C)=C[C@]2(C[C@@H](O)[C@@]2(O)[C@H]1C[C@H](O)C2(C)C)[C@@H]3OC(C)=O`, in the experiment on Mus musculus [5], the result was Active.

For `C=C1[C@@H]2[C@@H](O)[C@H](O)C(C)(C)[C@@]2(O)[C@H](O)C[C@@]23C[C@@](O)(CC[C@@H]12)[C@](C)(O)C3`, the outcome in the experiment with Mus musculus [1] was Active.

Take `C=C1[C@@H]2CC[C@@H]3C[C@@]2(C[C@@H](O)[C@@]2(O)[C@H]1C[C@H](O)C2(C)C)C[C@]3(O)CO`: the Activity with Mus musculus [1] is reported as 53.7%.

As to `C=C1C2=C(C=C[C@@]34C[C@@H](CC[C@@H]13)[C@](C)(O)C4)C(C)(C)[C@@H](O)C2`, in the experiment on Mus musculus [5], the result was Active.

Turning to `CC1(C)C2=CC[C@@]34C[C@@H](CC[C@H]3[C@@](C)(O)[C@H]2C[C@@H]1O)[C@](C)(O)C4`, the result with Mus musculus [1] was Active.

Turning to `CC(=O)O[C@@H]1[C@H]2CC[C@H]3[C@@](C)(O)[C@@H]4C[C@H](O)C(C)(C)[C@@]4(O)[C@H](O)C[C@@]13C[C@@]2(C)O`, the result with Mus musculus [2] and in the experiment with Mus musculus [3] was Active.

As to `CC1=C2C[C@H](O)C(C)(C)[C@@H]2C(=O)C[C@@]23C[C@@H](CC=C12)[C@](C)(O)C3`, the outcome with Mus musculus [1] was Active.
